Assay: gradient 5% acetonitrile 3 min, to 50% in 2 min, to 85% in 15 min, held 3 min, 100 µL/min
Conditions: column: Zorbax Extend-C18 2.1 x 50 mm; eluents: water / acetonitrile, 0.1% formic acid
How it was run: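 Pure standards were analyzed in mixtures of ~100 molecules using HPLC coupled to a quadrupole time-of-flight mass spectrometer, in both positive and negative ionization mode. Separation used a Zorbax Extend-C18 column (2.1 × 50 mm, 1.8 μm) at 100 μL/min, with water and acetonitrile each containing 0.1% formic acid. Dead and dwell volumes were 40 μL and 900 μL, and data were collected over 3 months. Retention time was read from computationally picked adduct peaks, each inspected manually.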

Row | Compound | RP-LC retention time [s]
1 | CCCNC(=O)Cc1c(C)nc2nc(-c3ccc(C(C)(C)C)cc3)nn2c1C | 920
2 | Cc1ccc(NC(=O)N2CCC(n3cnc4cc(Cl)ccc4c3=O)CC2)cc1C | 911
3 | COCCNc1nc(-c2ccc([N+](=O)[O-])cc2)nc2ccccc12 | 696
4 | N#Cc1ccc(N2C=C(C(=O)N3CCCCC3)S(=O)(=O)c3ccc(F)cc32)cc1 | 824
5 | Cc1ccccc1C(=O)Nc1nc(-c2ccc3c(c2)N(C)C(=O)CO3)c(C)s1 | 1050
6 | CCOc1ccccc1CNC(=O)C1CCCN(c2ccc(=O)n(-c3ccc(CC)cc3)n2)C1 (centres undefined) | 978
7 | Cc1nc2cc(-c3noc(-c4ccc(C#N)cc4)n3)ccc2o1 | 1010
8 | COc1ccccc1CNC(=O)c1ccc2ncnc(N3CCCC3)c2c1 | 640
9 | CC(=O)N1c2ccc(S(=O)(=O)N3CCCCC3)cc2CC1C(=O)NCCc1ccccc1 (centres undefined) | 868
10 | NS(=O)(=O)c1ccc(CCNC(=O)c2ccc3c(c2)NC(=O)C2CCCCN32)cc1 (centres undefined) | 672
11 | O=C(Cn1nc(N2CCOCC2)c2ccccc2c1=O)Nc1cccc(Br)c1 | 844
12 | Clc1ccccc1-c1nc(-c2ccnc(N3CCOCC3)c2)no1 | 994
13 | CCN(CC)C(=O)N1CC(Oc2ccc(-c3noc(COC)n3)cc2)C1 | 845
14 | CCOC(=O)Nc1ccc(S(=O)(=O)N2CCC(c3nc4ccccc4[nH]3)CC2)cc1 | 582
15 | O=C(NCCc1csc(-c2cccs2)n1)C1CCN(C(=O)COc2ccccc2)CC1 | 783
16 | CN(C)C(=O)Oc1cc(OC(=O)N(C)C)cc(C(O)CNC(C)(C)C)c1 (centres undefined) | 688
17 | CCOC(=O)c1nc(N(C)c2cccc(C)c2)c2ccccc2n1 | 982
18 | CCCN(C)C(=O)c1ccc(-c2nnc3ccc(NC(=O)C4CCC4)cn23)cc1 | 760
19 | CCCOc1nc2ccccc2nc1N1CCCC(C(=O)NCc2ccccc2C)C1 (centres undefined) | 1240
20 | CCNS(=O)(=O)c1cccnc1Nc1cccc(C)c1 | 998

Row | Compound | RP-LC retention time [s]
21 | COc1ccc(-c2ncc3c(n2)CCN(C(=O)c2cc(F)ccc2Cl)C3)cc1 | 966
22 | CCCOc1nc2ccccc2nc1N1CCCC(C(=O)Nc2cc(C)ccc2C)C1 (centres undefined) | 1340
23 | O=C(CN1C(=O)CCC1=O)NCC(O)C1CCCCC1 (centres undefined) | 597
24 | COCCNC(=O)Cn1c(=O)c2cccn2c2ccccc21 | 655
25 | CCOC(=O)c1cc(S(=O)(=O)N2CCCC2C(=O)Nc2cc(F)ccc2F)cn1C (centres undefined) | 982
26 | CCCc1ccc(S(=O)(=O)Nc2ccc(N3CCCN(C)CC3)cc2C(=O)O)cc1 | 676
27 | COc1ccccc1C(=O)NC1CCN(c2cc(C)cc(C)c2)C1=O (centres undefined) | 928
28 | CCCNC(=O)C1CCCN(c2ccc(SCC(=O)Nc3ccc(OC)c(Cl)c3)nn2)C1 (centres undefined) | 688
29 | O=C(N[C@@H]1CN(Cc2cc(F)c(F)cc2F)C[C@H]1CO)C1CCC1 | 599
30 | Fc1ccc(-c2nnc(-c3nc(NC4CCCCC4)c4ccccc4n3)o2)cc1 | 1110
31 | O=S(=O)(c1ccc(-c2noc(-c3ccccc3Cl)n2)cc1)N1CCCC1 | 1200
32 | CCCn1ccc2sc(C)c(C(=O)NC(C)c3ccccc3)c2c1=O (centres undefined) | 900
33 | Cc1cc(C)cc(NC(=O)Cn2nc(N3CCCCCC3)c3ccccc3c2=O)c1 | 1110
34 | CCC(=O)Nc1ccc(S(=O)(=O)NC2CCN(c3ccc(=O)n(CC4CC4)n3)C2)cc1 (centres undefined) | 712
35 | CCn1cnc(S(=O)(=O)N2CCCC(C(=O)Nc3ccc(C(C)C)cc3)C2)c1 (centres undefined) | 878
36 | Cc1ccc(Sc2nccnc2N2CCCC(C(=O)Nc3ccc(C)c(C)c3)C2)cc1 (centres undefined) | 1290
37 | CCOc1cccc(-c2noc(Cn3c(=O)n(-c4ccccc4F)c(=O)c4sccc43)n2)c1 | 1050
38 | COc1c(C(=O)NC(C)(C)C)sc2cccc(F)c12 | 1110
39 | CCOc1ccc(-c2cc3c(=O)n(Cc4nc(-c5cccc(F)c5)no4)ccn3n2)cc1 | 1140

Next, values leading:

Row | RP-LC retention time [s] | Compound
40 | 895 | COc1ccc(N2CCN(c3cc(SCC(=O)Nc4cccc(C#N)c4)ncn3)CC2)cc1
41 | 602 | Nc1ccc(C(=O)Nc2ccc(Nc3ccncc3)cc2)cc1
42 | 1060 | Cc1ccc(NC(=O)C(=O)c2ccc[nH]2)c(Br)c1
43 | 800 | O=C(Cn1ccc2sccc2c1=O)Nc1cccc(Cl)c1
44 | 964 | O=C1CC(c2noc(-c3ccccc3Cl)n2)CN1c1ccc(F)cc1 (centres undefined)
45 | 617 | CN1CCN(CCNC(=O)c2ccc3c(c2)N(S(=O)(=O)c2ccccc2F)CC3)CC1
46 | 607 | CN1CCCC1c1nc(C2CN(C(=O)CCc3nc4ccccc4s3)C2)no1 (centres undefined)
47 | 1270 | Cc1sc(C)c(S(=O)(=O)N2CCN(c3ccc(F)cc3)CC2)c1-c1cc(C(F)(F)F)on1
48 | 822 | O=C(NCc1nc(-c2ccccc2)no1)c1cc(C2CC2)on1
49 | 1050 | CCCCn1cnc2c(-c3ccccc3)cn(CC(=O)NCCC(C)C)c2c1=O
50 | 589 | Cc1nc(NC(=O)CCn2cnc3ccccc3c2=O)sc1C(=O)N(C)C
51 | 926 | Fc1cc(F)cc(Cc2nc3nccc(-c4ccccc4)n3n2)c1
52 | 624 | CC(C)NC(=O)N1CCCC(c2cccc(C(=O)NCCN3CCCCC3C)c2)C1 (centres undefined)
53 | 574 | CN(C)[C@@H]1CN(Cc2ccc(Br)o2)CC[C@@H]1CNC(=O)C1CC1
54 | 767 | O=C(NCc1cc(F)cc(F)c1)C1CC(=O)N(c2ccc3c(c2)CCN3C(=O)C2CC2)C1 (centres undefined)
55 | 896 | CCNC(=O)N1CCCC(c2cccc(C(=O)NCc3ccc(C(F)(F)F)cc3)c2)C1 (centres undefined)
56 | 907 | Cc1ccc(-n2c(=O)n(C)c(=O)c3cc(C(=O)Nc4ccc5c(c4)OCO5)cnc32)cc1
57 | 672 | Cc1ccc(NC(=O)N2CCC(n3cnnc3C3CC3)C2)cc1Cl (centres undefined)
58 | 859 | CCN1C(=O)C(C)(C(=O)Nc2ccccc2)Oc2cccnc21 (centres undefined)
59 | 677 | CCc1cccc(Nc2c(C(=O)N3CCCCC3C)cnc3nc(C)ccc23)c1 (centres undefined)
60 | 666 | O=C(Cn1cnc(-c2cccs2)cc1=O)NCCn1nc(-c2cccs2)ccc1=O
61 | 664 | COc1ccc(Cl)cc1NC(=O)N1CCN(C2=CC3=NC(C)CN3C=N2)CC1 (centres undefined)
62 | 910 | Cc1ccc(S(=O)(=O)c2nc(SCC(=O)N3CCCCC3)sc2Cl)cc1
63 | 931 | CCOc1ccccc1NC(=O)C1CCN(S(=O)(=O)c2ccc3c(c2)sc(=O)n3C)CC1
64 | 592 | CC1=C(c2ccc(Cl)cc2)S(=O)(=O)N=C1N1CCC(C(=O)NCCN2CCOCC2)CC1

Row | RP-LC retention time [s] | Compound
65 | 917 | CC(C)C(NC(=O)NCc1ccc(F)cc1)C(=O)N1CCc2ccccc21 (centres undefined)
66 | 678 | CCOCCCNC(=O)C1CCCN(C(=O)c2[nH]c(C)cc2C)C1 (centres undefined)
67 | 831 | Cc1ccc(NC(=O)N2CCC3(CC2)NC(=O)c2ccccc2O3)cc1Cl
68 | 645 | Cc1oc(-c2[nH]ncc2C(=O)N2CCOCC2)cc1S(=O)(=O)NCC(C)C
69 | 860 | COc1ccc(NC(=O)c2cccs2)c([N+](=O)[O-])c1
70 | 725 | CCCCNC(=O)c1cc2n(n1)CC(C)(C(=O)NCc1ccc(F)cc1)N(C)C2=O (centres undefined)
71 | 905 | Cc1ccc(Sc2ccc(N3CCCC(C(=O)NCc4ccccc4)C3)nn2)cc1 (centres undefined)
72 | 756 | CSc1cccc(NC(=O)COc2cc(C(F)(F)F)c3c(C)nn(C)c3n2)c1
73 | 664 | Cc1ccc(N2CCN(C(=O)c3cn4ccc(C)cc4n3)CC2)cc1
74 | 688 | CC(C)N1C(=O)CSc2cnn(CC(=O)NC3CCCC3)c(=O)c21
75 | 808 | CC(C)n1c(=O)sc2cc(S(=O)(=O)N3CCC(C(=O)NCc4cccnc4)CC3)ccc21
76 | 775 | O=C(C1=CN(c2ccc(F)c(Cl)c2)c2cc(F)ccc2S1(=O)=O)N1CCOCC1
77 | 924 | COc1ccc(-n2c(=O)n(C)c(=O)c3cc(C(=O)NC4CCCCCC4)cnc32)cc1
78 | 670 | COc1ccc(C2CN(S(=O)(=O)c3ccccc3F)CCN2C)cc1 (centres undefined)
79 | 545 | O=C(NCCCn1ccnc1)C(=O)NC1CCCCC1
80 | 961 | Cc1nc(-c2ccc(Cl)cc2)sc1C(=O)N1CCN(c2ncccn2)CC1
81 | 805 | Cc1c(Cl)cccc1NC(=O)C(C)n1cnc2nc3c(cc2c1=O)CCCC3 (centres undefined)
82 | 881 | Cc1cc(C)c2sc(NC(=O)c3ccco3)nc2c1
83 | 663 | CC(C)NC(=O)c1ccc(-c2ccc(N3CCSCC3)nc2)cc1
84 | 1180 | Cc1ccccc1CSc1nnc(-c2ccccc2Cl)o1
85 | 867 | COc1ccc(-c2ccnc3nc(CCc4ccc(OC)c(OC)c4)nn23)c(F)c1
86 | 1220 | CCCCn1cc(S(=O)(=O)N2CCN(c3cccc(C)c3)CC2)c2cccnc21
87 | 1000 | Cc1ccccc1-n1c(=O)c2sccc2n(Cc2nc(-c3ccccc3)no2)c1=O
88 | 692 | Cc1ccc2nc(-c3c(F)cccc3Cl)c(Nc3ccc4c(c3)OCCO4)n2c1
89 | 722 | Cn1ncc(NC(=O)Cc2cccc(F)c2)c(N2CCOCC2)c1=O

— the METLIN SMRT retention time set (Domingo-Almenara et al. 2019)
